In brackets after ≈: the same amount, converted by molar mass.
Assays:
[1] = Aqueous solubility as a function of pH; assay type: physicochemical; details: thermodynamic from solid
Experimental: Aqueous solubility was determined by suspending compound in un-buffered water with stirring. Insoluble material was removed by sedimentation or filtration and soluble compound quantified by absorbance spectroscopy and LC/MS. pH dependence was determined by suspending compound in 10 mM citrate buffer at pH 4.0 or 10 mM phosphate […] as described above in the description.
The morpholine ring is commonly introduced into solvent exposed regions as a privileged solubilizing group to improve solubility or pharmacokinetic properties including metabolic stability of a prospective drug scaffold which is exemplified by many FDA approved drugs. Modifications on Ring A had less of an effect than the morpholino modifications at the alkyl carboxylic acid side chain. To determine the effect of pH on solubility, we prepared solution at 1 mM in citrate buffer at pH 4, phosphate buffer at pH 7 and carbonate buffer at pH 9.5.

[2] = system: H460 NSCLC cells; assay: Combination index (Chou-Talalay), CCK-8 assay; assay type: cell-based; details: CI <1.0 = synergy
Experimental: (§1) Cell survival was determined by CCK-8 viability assay and/or clonogenic survival assay in 96 well plates or 24 well plates, respectively and combination index (CI) analysis of drug-drug interactions determined by Chou-Talalay analysis as we have previously described. • 1) CCK-8 metabolic assay: Cells were plated (2500 cells/well) in 96-well plate and allowed to grow for at least 18 hours in at 37° C. in the presence of 5% CO2 before treatment with inhibitor for 48 hours. CCK-8 solution (Dojindo) was added to 10% of the total media volume and after 1-4 hours of incubation absorbance at 450 nm was determined using BioTek® Synergy™ H1 hybrid multi-mode microplate reader • 2) Clonogenic survival assay: Cells were plated in a 24 well (20,000 cells/well) plate, incubated for at least 18 hours and then treated with inhibitor. After 48 hours of treatment, the cells are re-plated in 10 cm dishes (500 cells/dish) and incubated for 8-10 days to allow colony formation. Plates are washed with PBS, fixed with glutaraldehyde and stained with crystal violet. Images of the stained colonies were captured with a Fuji LAS-3000 CCD system then counted using OpenCFU software. Viability is determined as a percent of vehicle controls and plotted versus drug concentration. • 3) Assessment of synergy via combination index (CI): In the combination index studies, cells (H460 or SKGT4) were treated with RPA inhibitor and Pt/etoposide/bleomycin/taxol/DDR inhibitor alone as well as the combination of both—the inhibitor and the DNA damaging chemotherapeutic agent/DDR inhibitor. The range of treatment was dependent on the IC50 of each inhibitor/drug. If the IC50 was X, then the cells were treated at a range of 0.04× to 5× concentration in a CCK-8 metabolic assay. The kill curves from both the single agent treatments as well as the combination treatment were used in a Chou-Talalay based method to determine the combination index (CI) at different fractions of cells affected.^40 A CI>1.0 indicates antagonism between the two agents, while a CI<1.0 indicates synergy.
Inhibiting RPA can act synergistically with DNA damaging therapeutics including cisplatin and etoposide (FIG. 4C). In these studies, we used the Chou-Talalay method, which provides a combination index (CI) that quantifies synergistic activity for each drug combination. […] The synergistic activity of compounds described herein with DNA damaging agents may be explained by RPA's role in the DNA damage response and signaling.

[3] = biological target: T1, full length heterotrimeric human RPA (Homo sapiens, UniProt P27694); assay: Electrophoretic mobility shift assay (EMSA), binding of full length human RPA to ssDNA; details: full length human RPA binding to DNA, mean ± SD of minimum triplicate experiments
T1 construct: Full length, heterotrimeric human RPA (fl-RPA) and DBD-A/B constructs were expressed and purified; made in house
Experimental: (§2) Full length, heterotrimeric human RPA (fl-RPA) and DBD-A/B constructs were expressed and purified according to previously described protocol. The DBD-A/B construct was expressed as a His6-RPA181-422 fusion protein. E. coli BL21 (DE3) cells in log growth were induced for 3 h with 0.5 mM IPTG at 37° C. The cells were lysed via sonication in buffer containing 20 mM Tris pH 7.5, 500 mM NaCl, 10 mM b-mercaptoethanol, supplemented with 25 μg/mL lysozyme, 1 μg/mL leupeptin, 1 μg/mL pepstatin and 0.5 mM PMSF. The lysate was applied to a 20 mL phosphocellulose column equilibrated in the same buffer and the flow-through material collected, brought to 5 mM Imidazole and loaded onto a 2 ml Ni-NTA column. The column was washed and proteins eluted on with a gradient from 50 mM to 500 mM imidazole. Fractions were assessed by EMSA and SDS-PAGE and DBD-A/B containing fraction were pool, dialyzed against buffer containing 50 mM HEPES pH 7.0, 500 mM NaCl and 1 mM DTT and stored at −80° C.
(§3) EMSAs were carried out using previously described procedure with the following modification. EMSA reactions (20 μL) were performed with 50 nM fl-RPA and 2.5 nM 5′ [^32P]-labeled 34-base DNA in buffer containing 20 mM HEPES (pH 7.8), 1 mM DTT, 0.001% NP-40, 50 mM NaCl. Chemical compounds were suspended in DMSO and DMSO concentration in the reaction mixture was kept constant at 2% or below 5%. RPA was incubated with inhibitor or DMSO control in reaction buffer for 30 min before the addition of DNA. Reactions were incubated for 5 min at room temperature and products separated via 6% native polyacrylamide gel electrophoresis. The bound and unbound fractions were then quantified by phosphor-imager analysis using ImageQuant software (Molecular Dynamics, CA) and IC50 values calculated by non-linear regression using SigmPlot (Sysat). For EMSA reactions with RPA DBD-A/B, 150 nM DBD-A/B was used, and electrophoresis was performed at 4° C. All other conditions were identical to those described for the full-length RPA.
Purified full length heterotrimeric human RPA protein was used to screen a series of analogs in an electrophoretic mobility shift assay (EMSA) measuring direct binding to a ss-DNA substrate. Quantification of the EMSA data and additional concentration dependent analysis to measure IC50 values of newly synthesized analogs provided potential insight into the structure-activity relationships (Table 1 and 2). […] Fluorine and trifluoromethyl substituents were included in pyridinyl compounds 28-29.

[4] = system: H460 NSCLC cells; assay: Cellular uptake measurement by LC/MS; assay type: in vitro ADME; details: 20 μM, 4 hours, 37° C.
Experimental: All cells were grown as monolayers at 37° C. with 5% CO2 in media containing 20% fetal bovine serum and 0.1% pen/strep. Cellular uptake was assessed in both H460 NSCLC and SKGT4 esophageal adenocarcinoma cells. Briefly, cells were plated in 35 mm dishes at 1×10^6 cells well and incubated overnight. Compounds were added to the medium at a concentration of 20 μM incubation continued for 4 hours. Media was removed and cells washed 3× with PBS. 1 mL of methanol was added per well and cells agitated overnight at 4° C. The methanol was collected, wells washed with an additional 1 ml of methanol and pooled. The compounds were dried under vacuum, suspended in methanol and quantified by LC/MS.
Cellular uptake of our compounds in H460 NSCLC cells was analyzed (FIG. 3B). Initially, compounds were first solubilized in 100% DMSO then diluted in aqueous buffer of media to achieve the desired concentrations, the final DMSO concentration was 1% or less in all experiments. Cells were treated with a fixed concentration (20 μM) for 4 hours at 37° C. The intracellular drug concentrations were determined following extraction with ice cold MeOH and analysis via LC and LC/MS. […] Similar uptake data was also obtained in the SKGT4 esophageal adenocarcinoma cell line.

[5] = system: sonicated salmon sperm DNA; assay: Fluorescent intercalator displacement (FID) assay, SYBR-Green; assay type: binding; details: 25 mM MOPS pH 6.5
Experimental: The analysis of compound interactions with DNA was determined by inhibition of SYBR-Green intercalation into DNA as we have previously described. Briefly, reactions were performed in 25 mM MOPS (pH 6.5) containing sonicated salmon sperm DNA (8.29 ng/μL), SYBR-Green, and the indicated concentrations of RPA inhibitors. Reactions were conducted in black 96-well plates. Doxorubicin, a known noncovalent DNA binding chemotherapeutic, was used as a positive control. Fluorescence was measured using a BioTek® Synergy™ H1 hybrid multi-mode microplate reader with an excitation wavelength of 485 nm, emission wavelength of 528 nm, and a read height of 7 mm. Data were collected using BioTek® Gen5™ reader software. Reactions were incubated a maximum of 5 min before measurements were collected.
In order to probe the potential role of DNA intercalation as a mechanism for RPA inhibition, compounds 19, 23, 26, 27, 43 and 45 were analyzed using FID assay along with doxorubicin (Dox) as a positive control. […] In addition, direct binding of 9 derivatives to the target protein was assessed using a differential scan fluorimetry (DSF) assay. This assay assesses the melting profile of a protein at increasing temperatures via fluorescent dye binding. The direct interaction of a small molecule to the target protein can either increase or decrease the melting temperature (Tm) of the target depending on the specific protein and their interactions. […] Heparin sulfate, a known RPA interacting molecule often used in the purification of the protein was used as a control. […] (data not shown). […] (FIG. 1B).

[6] = biological target: T2, RPA DBD-A/B construct (His6-RPA181-422 of RPA70) (Homo sapiens, UniProt P27694); assay: EMSA, binding of RPA DBD-A/B construct to DNA; details: mean ± SD, read-out: RPAA/B IC50
T2 construct: The DBD-A/B construct was expressed as a His6-RPA181-422 fusion protein; His6 (N); made in house; host or cells: E. coli BL21 (DE3)
Experimental: as §2, §3
These domains are compact modular domains populated with hydrophobic and basic DNA binding amino acid residues and have great potential to influence binding of the compounds to the RPA70 subunit. RPA DBD-A/B construct was purified via Ni-affinity chromatography. The activity of compounds 23-27 was evaluated on purified DBD-A/B construct using EMSA.

[7] = system: H460 NSCLC cells; assay: Cell survival, CCK-8 metabolic assay, single agent; assay type: cell-based
Experimental: as §1, with “After 48 hours of treatment, the cells are re-plated in 10 cm dishes (500 cells/dish) and incubated for 8-10 days to allow colony formation. Plates are washed with PBS, fixed with glutaraldehyde and stained with crystal violet.” left out, “The range of treatment was dependent on the IC50 of each inhibitor/drug. If the IC50 was X, then the cells were treated at a range of 0.04× to 5× concentration in a CCK-8 metabolic assay. The kill curves from both the single agent treatments as well as the combination treatment were used in a Chou-Talalay based method to determine the combination index (CI) at different fractions of cells affected.^40 A CI>1.0 indicates antagonism between the two agents, while a CI<1.0 indicates synergy.” left out

T1 sequence (P27694 whole entry): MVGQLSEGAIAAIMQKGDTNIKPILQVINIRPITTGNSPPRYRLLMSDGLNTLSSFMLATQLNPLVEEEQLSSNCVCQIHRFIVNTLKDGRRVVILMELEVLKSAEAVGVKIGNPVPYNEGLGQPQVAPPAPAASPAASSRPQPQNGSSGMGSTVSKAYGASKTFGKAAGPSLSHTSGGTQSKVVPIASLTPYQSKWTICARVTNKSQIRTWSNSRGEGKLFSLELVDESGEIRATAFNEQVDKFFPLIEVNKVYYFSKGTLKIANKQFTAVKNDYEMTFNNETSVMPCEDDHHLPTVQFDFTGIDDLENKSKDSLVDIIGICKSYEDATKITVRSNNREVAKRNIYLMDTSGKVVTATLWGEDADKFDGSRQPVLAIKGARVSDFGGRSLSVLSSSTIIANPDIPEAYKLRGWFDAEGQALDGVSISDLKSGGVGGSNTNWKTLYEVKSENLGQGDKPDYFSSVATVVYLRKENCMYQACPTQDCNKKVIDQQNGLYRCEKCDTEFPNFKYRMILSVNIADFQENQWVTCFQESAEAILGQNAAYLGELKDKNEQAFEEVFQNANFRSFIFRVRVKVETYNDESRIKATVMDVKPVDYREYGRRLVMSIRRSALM
T1 sequence (P15927 whole entry partner): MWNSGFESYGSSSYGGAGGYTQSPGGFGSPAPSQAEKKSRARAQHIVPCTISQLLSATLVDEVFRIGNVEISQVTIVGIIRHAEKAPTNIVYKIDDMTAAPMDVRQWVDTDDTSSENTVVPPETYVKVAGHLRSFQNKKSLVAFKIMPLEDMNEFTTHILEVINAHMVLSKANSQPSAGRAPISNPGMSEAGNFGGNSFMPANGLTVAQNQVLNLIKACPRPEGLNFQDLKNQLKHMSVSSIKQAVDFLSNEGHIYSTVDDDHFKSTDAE
T1 sequence (P35244 whole entry partner): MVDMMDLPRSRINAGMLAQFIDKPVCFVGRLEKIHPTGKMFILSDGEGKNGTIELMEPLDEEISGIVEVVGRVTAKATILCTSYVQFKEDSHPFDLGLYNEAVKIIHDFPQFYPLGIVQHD
T2 sequence (P27694 181-422): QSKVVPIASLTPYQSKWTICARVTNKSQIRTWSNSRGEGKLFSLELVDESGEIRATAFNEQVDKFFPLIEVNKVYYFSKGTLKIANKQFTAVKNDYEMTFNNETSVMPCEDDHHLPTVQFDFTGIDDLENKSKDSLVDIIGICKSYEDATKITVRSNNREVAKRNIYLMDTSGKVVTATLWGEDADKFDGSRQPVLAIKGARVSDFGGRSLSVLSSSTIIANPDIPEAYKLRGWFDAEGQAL

SMILES | solubility ([1]; aqueous buffer at pH 9.5, pH 9.5, aqueous buffer) | solubility ([1]; aqueous buffer, pH 4, citrate buffer) | solubility ([1]; aqueous buffer, pH 7, phosphate buffer) | synergy (combination index) with DNA damaging therapeutics cisplatin and etoposide [2] | IC50 [3] | cellular uptake (in words) [4] | DNA binding activity (displacement of SYBR-Green intercalator) [5] | IC50 [6] | cellular anticancer activity compared to compound 9 [7]
CCOc1ccc2cc(C3CC(c4ccc(I)cc4)=NN3C(=O)CCCC(=O)O)c(Cl)nc2c1 (centres unmarked) [Compound 9, 5-(5-(2-Chloro-7-ethoxyquinolin-3-yl)-3-(4-iodophenyl)-4,5-dihydro-1H-pyrazol-1-yl)-5-oxopentanoic acid] | 112.5 ± 0.74 µM (≈ 66.6 µg/mL) | 0.76 ± 0.35 µM (≈ 0.45 µg/mL) | 3.31 ± 0.36 µM (≈ 1.96 µg/mL) | showed synergy but not as robust of activity as compound 8 | 15.3 ± 1.42 µM | relatively poor uptake | – | – | –
CCOc1ccc2cc(C3CC(c4ccc(-c5ccc(Cl)nc5)cc4)=NN3C(=O)CCCC(=O)O)c(Cl)nc2c1 (centres unmarked) [Compound 26, 5-(5-(2-Chloro-7-ethoxyquinolin-3-yl)-3-(4-(6-chloropyridin-3-yl)phenyl)-4,5-dihydro-1H-pyrazol-1-yl)-5-oxopentanoic acid] | – | – | – | – | 1.61 ± 0.04 µM | increased uptake | No significant DNA binding activity | 11.7 ± 0.3 µM | increase in cellular anticancer activity

— patent publication US12486246B2, “Replication protein A (RPA)-DNA interaction inhibitors” (THE TRUSTEES OF INDIANA UNIVERSITY, priority 2019, dated 2025)
